# Data as given in PMC3760305, “Mimicking Protein–Protein Interactions through Peptide–Peptide Interactions: HIV-1 gp120 and CXCR4” (Frontiers in Immunology, 2013).
# “Also recorded” adds a separate entry of the source.
# Tests used:
# V3 loop peptide V3HxBc2 = experiment: Direct ELISA: CX4-M1 variants binding to V3 loop peptide; design: species or system HIV-1; details: variants 0.5 μM, fluoresceinylated V3HxBc2, relative to CX4-M1
# Procedure: (§1) High binding microtiter plates (Immulon 2HB) were coated overnight at 4°C with streptavidin (4 μg/mL) in 0.1 M sodium carbonate buffer pH 9.5. Unspecific binding was blocked with 1% BSA in 0.1 M phosphate buffer pH 7.2, 200 μL/well for 1 h. All following steps were performed using 0.1 M phosphate buffer pH 7.2 containing 1% BSA (ELISA with V3 loop peptides) and 0.1% BSA (ELISA with gp120), respectively, as well as 0.01% Tween 20. Plates were incubated with 100 μL CX4-M1 variants (0.5 μM for binding to V3 loop peptides, 2.5 μM for binding to gp120), or biotin alone as a blank, for 2 h. Plates were then incubated for 3 h with fluoresceinylated V3 loop peptides (250 or 100 nM), or gp120 (8.3 nM, either with or without 8.3 nM sCD4). V3 loop peptides were detected using 100 μL/well mouse anti-fluorescein-HRP conjugate from antibodies online (3 μg/mL) for 1 h. Gp120 was detected using a two antibody system. Sheep anti-gp120 (D7324) from Aalto Bio Reagents (0.2 μg/mL) was added for 1 h, followed by a 1 h incubation with rabbit anti-sheep-HRP conjugate from Dianova (3 μg/mL), 100 μL/well. Plates were washed four times with 0.01% Tween 20 in 0.1 M phosphate buffer pH 7.2 (300 μL/well) after each incubation step. Plates were developed with 100 μL/well OPD (1 mg/mL) in the presence of 0.03% H2O2 for approximately 1.5 min (V3 loop peptide detection), or 3.5 min (gp120 detection) in the dark. After the reaction was stopped with 50 μL/well 2 M H2SO4, absorbances were read at 492 nm and corrected for the blank (sample with biotin instead of CX4-M1). All data points present means of at least duplicates.
# gp120HxBc2 [1] = molecular target: T1, gp120HxBc2 (Human immunodeficiency virus type 1 group M subtype B, UniProt P04578); assay type: binding, HIV-1; details: direct ELISA; variants 2.5 μM; gp120 8.3 nM in the presence of sCD4; relative to CX4-M1
# T1 construct: gp120MN, gp120ADA, and gp120HxBc2 from Immune Technology; purchased Immune Technology
# Procedure: as §1
# [2] = molecular target: T2, CXCR4 mimetic peptide CX4-M1 (Homo sapiens, UniProt P61073); experiment: Direct ELISA: fluoresceinylated V3 loop peptides binding to CX4-M1; details: for effect of alanine substitution in V3HxBc2 on binding to CX4-M1: direct ELISA, relative to V3HxBc2; for binding of V3 loop peptide to CX4-M1 (direct ELISA): CX4-M1 0.5 μM on streptavidin plate, fluoresceinylated V3 loop peptides 250 or 100 nM, 3 h, absorbance 492 nm
# Procedure: as §1
# [3] = molecular target: T2, CXCR4 mimetic peptide CX4-M1; experiment: SPR: binding of V3 loop peptides to captured CX4-M1; details: SPR Biacore X100; CX4-M1 (2 μM) bound to streptavidin; V3 loop peptides 5–0.3 μM; HBS-N pH 7.4, 0.05% Tween 20, 100 mM MgCl2
# Procedure: (§2) All measurements were performed using a Biacore X100 instrument in conjunction with the Biotin CAPture Kit (both from GE Healthcare). Sensor chip CAP was hybridized with a 1:10 dilution of CAPture reagent (streptavidin conjugate) in running buffer. […] For dehybridization, a regeneration solution of 6 M guanidinium chloride and 250 mM sodium hydroxide was used. HBS-N buffer (10 mM HEPES, 150 mM sodium chloride, pH 7.4) containing 0.05% Tween 20, as well as 100 mM (V3 loop peptides) or 2.5 mM (gp120) magnesium chloride, was used as running buffer. Measurement and data evaluation was performed using Biacore X100 Control Software (Version 2.0) and Biacore X100 Evaluation Software (Version 2.0), respectively.
# gp120HxBc2 [4] = molecular target: T1, gp120HxBc2; experiment: SPR: binding of gp120 to captured CX4-M1; design: species or system HIV-1
# Procedure: as §2
# gp120MN = molecular target: T3, gp120MN (Human immunodeficiency virus type 1 group M subtype B, UniProt P05877); experiment: SPR: binding of gp120 to captured CX4-M1; design: species or system HIV-1
# T3 construct: gp120MN, gp120ADA, and gp120HxBc2 from Immune Technology; purchased Immune Technology
# Procedure: as §2
compound,measurement,setting,value
"Ac-ECL1-X-B-X-DRYICDRFYPNDAWV-X-B-X-ECL3-X-K(Bio)-NH2 (disulfide) [CX4-M1 L194A, alanine substitution variant of ECL2 of CX4-M1]",effect of alanine substitution in ECL2 of CX4-M1 on binding to V3HxBc2,V3 loop peptide V3HxBc2,enhancement of binding
same,effect of alanine substitution in ECL2 of CX4-M1 on binding to gp120HxBc2,gp120HxBc2 [1],negative effect on the affinity; also recorded: attenuated binding
"Fluo-X-G-X-CTRPNNNTRKRIRIQRGPGRAFATIGKIGNMRQAHC-NH2 (disulfide) [V3HxBc2 V318A, alanine scan variant of V3HxBc2]",effect of alanine substitution in V3HxBc2 on binding to CX4-M1,[2],strongly diminished binding
"Yc-X-G-X-CTRPNNNTRKSIHI–GPGRALYTTGEIIGDIRQAHC-NH2 (disulfide) [Peptide V3BAL, fluoresceinylated peptide presenting the V3 loop of gp120 from R5-tropic HIV-1 BAL]",KD (V3 loop peptide) to CX4-M1,[3],No binding
"Fluo-X-G-X-CTRPNNNTRKRARIQRGPGRAFVTIGKIGNMRQAHC-NH2 (disulfide) [V3HxBc2 I307A, alanine scan variant of V3HxBc2]",effect of alanine substitution in V3HxBc2 on binding to CX4-M1,[2],strongly diminished binding
"Fluo-X-G-X-CTRPNNNTRKRIAIQRGPGRAFVTIGKIGNMRQAHC-NH2 (disulfide) [V3HxBc2 R308A, alanine scan variant of V3HxBc2]",effect of alanine substitution in V3HxBc2 on binding to CX4-M1,[2],strongly diminished binding
"Fluo-X-G-X-CTRPNNNTRKRIRIQRGPGRAAVTIGKIGNMRQAHC-NH2 (disulfide) [V3HxBc2 F317A, alanine scan variant of V3HxBc2]",effect of alanine substitution in V3HxBc2 on binding to CX4-M1,[2],strongly diminished binding
"Fluo-X-G-X-CTRPNNNTRKRIRAQRGPGRAFVTIGKIGNMRQAHC-NH2 (disulfide) [V3HxBc2 I309A, alanine scan variant of V3HxBc2]",effect of alanine substitution in V3HxBc2 on binding to CX4-M1,[2],strongly diminished binding
"Fluo-X-G-X-CTRPNNNTRKRIRIQRGPGRAFVTAGKIGNMRQAHC-NH2 (disulfide) [V3HxBc2 I320A, alanine scan variant of V3HxBc2]",effect of alanine substitution in V3HxBc2 on binding to CX4-M1,[2],strongly diminished binding
Fluo-X-G-X-CTRPNNNTRK––QRGPGRA–-GKIGNMRQAHC–NH2 (disulfide) [V3HxBc2 Δbeta],binding of V3 loop peptide to CX4-M1 (direct ELISA),[2],complete loss of binding
"Fluo-X-G-X––––-C^dRIRIQRGPGRAFVTIC^d–––––-NH2 (disulfide) [V3HxBc2 turn/beta, truncated variant of V3HxBc2 presenting the turn region and the two beta strands]",binding of V3 loop peptide to CX4-M1 (direct ELISA),[2],retained some of the affinity
"Ac-ECL1-X-B-X-DRYICDRFAPNDLWV-X-B-X-ECL3-X-K(Bio)-NH2 (disulfide) [CX4-M1 Y190A, alanine substitution variant of ECL2 of CX4-M1]",effect of alanine substitution in ECL2 of CX4-M1 on binding to V3HxBc2,V3 loop peptide V3HxBc2,enhancement of binding
same,effect of alanine substitution in ECL2 of CX4-M1 on binding to gp120HxBc2,gp120HxBc2 [1],attenuated binding
"Fluo-X-G-X-CTRPNNNTRKSIHI–GPGRAFYTTGEIIGDIRQAHC-NH2 (disulfide) [Peptide V3ADA, fluoresceinylated peptide presenting the V3 loop of gp120 from R5-tropic HIV-1 ADA]",KD (V3 loop peptide) to CX4-M1,[3],No binding
CC[C@H](C)[C@@H]1NC(=O)[C@H](Cc2ccc(O)cc2)NC(=O)[C@H](CCCNC(=N)N)NC(=O)[C@H](CC(=O)O)NC(=O)CCCCCNC(=O)CCNC(=O)CCCCCNC(=O)[C@H](CCCCN)NC(=O)[C@@H](NC(=O)[C@H](CC(C)C)NC(=O)[C@H](Cc2ccccc2)NC(=O)[C@H](CC(N)=O)NC(=O)CNC(=O)[C@H](Cc2ccccc2)NC(=O)[C@H](Cc2ccc(O)cc2)NC(=O)[C@H](Cc2c[nH]c3ccccc23)NC(=O)[C@H](CC(N)=O)NC(=O)[C@H](C)NC(=O)[C@@H](NC(=O)[C@H](C)NC(=O)[C@H](CC(=O)O)NC(C)=O)C(C)C)CSSC[C@@H](C(=O)N[C@@H](CC(=O)O)C(=O)N[C@@H](CCCNC(=N)N)C(=O)N[C@@H](Cc2ccccc2)C(=O)N[C@@H](Cc2ccc(O)cc2)C(=O)N2CCC[C@H]2C(=O)N[C@@H](CC(N)=O)C(=O)N[C@@H](CC(=O)O)C(=O)N[C@@H](CC(C)C)C(=O)N[C@@H](Cc2c[nH]c3ccccc23)C(=O)N[C@H](C(=O)NCCCCCC(=O)NCCC(=O)NCCCCCC(=O)N[C@@H](CC(=O)O)C(=O)N[C@@H](CO)C(=O)N[C@@H](Cc2ccccc2)C(=O)N[C@H](C(=O)N[C@@H](CC(C)C)C(=O)N[C@@H](CC(C)C)C(=O)N[C@@H](CCC(=O)O)C(=O)N[C@H](C(=O)N[C@H](C(=O)N[C@@H](CCCCN)C(=O)N[C@@H](CCC(N)=O)C(=O)NCC(=O)N[C@@H](CO)C(=O)N[C@@H](CCC(=O)O)C(=O)N[C@@H](Cc2ccccc2)C(=O)N[C@@H](CCC(=O)O)C(=O)N[C@@H](CC(N)=O)C(=O)N[C@H](C(=O)N[C@H](C(=O)N[C@@H](Cc2c[nH]cn2)C(=O)N[C@@H](CCCCN)C(=O)NCCCCCC(=O)N[C@@H](CCCCNC(=O)CCCC[C@@H]2SC[C@@H]3NC(=O)N[C@@H]32)C(N)=O)C(C)C)[C@@H](C)O)[C@@H](C)CC)[C@@H](C)CC)[C@@H](C)CC)C(C)C)NC1=O [CX4-M1],Kd,gp120HxBc2 [4],200 nM
same,Kd,gp120MN,700 nM
"Ac-ECL1-X-B-X-DRYICDRFYPNDLWA-X-B-X-ECL3-X-K(Bio)-NH2 (disulfide) [CX4-M1 V196A, alanine substitution variant of ECL2 of CX4-M1]",effect of alanine substitution in ECL2 of CX4-M1 on binding to V3HxBc2,V3 loop peptide V3HxBc2,enhancement of binding
"Fluo-X-G-X––––––-C^dQRGPGRAC^d–––––––-NH2 (disulfide) [V3HxBc2 turn, truncated variant of V3HxBc2 presenting only the turn region]",binding of V3 loop peptide to CX4-M1 (direct ELISA),[2],complete loss of binding
"Ac-ECL1-X-B-X-DRAICDRFYPNDLWV-X-B-X-ECL3-X-K(Bio)-NH2 (disulfide) [CX4-M1 Y184A, alanine substitution variant of ECL2 of CX4-M1]",effect of alanine substitution in ECL2 of CX4-M1 on binding to V3HxBc2,V3 loop peptide V3HxBc2,enhancement of binding
same,effect of alanine substitution in ECL2 of CX4-M1 on binding to gp120HxBc2,gp120HxBc2 [1],attenuated binding
